2 compounds from US8318781B2, “G-protein-conjugated receptor agonist” (Japan Science and Technology Agency, priority 2007, dated 2012) can be followed below.

The assay deals with T1, human GPR120 (hGPR120) (Homo sapiens, UniProt Q5NUL3).
T1 construct: expressed in transfected cells; doxycycline-inducible expression vector
T1 sequence (Q5NUL3 1-361): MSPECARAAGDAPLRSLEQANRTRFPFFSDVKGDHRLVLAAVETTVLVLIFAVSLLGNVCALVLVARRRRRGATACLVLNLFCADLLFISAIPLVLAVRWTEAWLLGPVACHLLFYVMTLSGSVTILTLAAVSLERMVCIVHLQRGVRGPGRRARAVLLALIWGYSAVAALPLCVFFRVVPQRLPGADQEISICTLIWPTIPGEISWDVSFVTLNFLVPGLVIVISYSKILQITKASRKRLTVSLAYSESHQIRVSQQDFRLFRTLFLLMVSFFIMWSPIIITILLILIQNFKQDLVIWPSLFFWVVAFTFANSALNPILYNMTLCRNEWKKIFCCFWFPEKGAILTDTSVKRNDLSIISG
The experiment in a line: Determination of intracellular Ca2+ concentration (FLIPR), cell line GPR120/Flp-in. In kind it is cell-based. Conditions: GPR120/Flp-in cells; for EC50: maximum fluorescence intensity vs ligand concentration, read-out: [Ca^2+]/GPR120/Flp-In pEC50 (converted); for [Ca^2+]/GPR120/Flp-In 10 μM (ratio vs. LA): relative fluorescence intensity vs LA at 10 μM.

With `CN(C)c1ccc(N(CCOc2ccc(CCCC(=O)O)cc2)c2ccccn2)cc1` [NCG54], the EC50 was 2400 nM and the “[Ca^2+]/GPR120/Flp-In 10 μM (ratio vs. LA)” value is 0.92.

Take `O=C(O)CCCc1ccc(OCCN(c2ccccc2)c2nccs2)cc1` [NCG46]: the EC50 was 1660 nM and the “[Ca^2+]/GPR120/Flp-In 10 μM (ratio vs. LA)” value is reported as 1.06.
